# Experiments:
# Assay type in all cases: cell-based
# MCF7 cells = assay: Cell proliferation assay MCF7; details: MCF7 human breast cancer cells; 120 hours; ATPlite 1 Step
# Procedure, shortened: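 After 120 h of compound exposure (duplicates, DMSO at most 0.5%) in DMEM GlutaMAX with 10% FBS, ATPlite 1 Step luminescence measured cellular ATP. Compound was added 24 h after seeding, at a density chosen for ~90% confluence at the end.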
# H3K4me3 mark = assay: Histone lysine demethylase immunofluorescence assay, non-transfected U2OS cells; details: Homo sapiens, staining of the H3K4me3 mark, 20 hours incubation with compound
# Procedure, shortened: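 Non-transfected U2OS cells incubated with compounds 20 h in DMEM/5% FBS. Fixed cells immunostained for H3K4me3 with Hoechst counterstain and imaged by high-throughput microscopy. IC50 based on average cellular H3K4me3 staining.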
# KDM4A = molecular target: T1, KDM4A (Homo sapiens, UniProt O75164); assay: Histone lysine demethylase immunofluorescence assay, U2OS cells transfected with KDM4A; details: U2OS cells transfected with pCMVHA KDM4A; mark detected H3K9me3; 20 hours
# T1 construct: Full length; host or cells: U2OS
# T1 sequence (O75164 1-1064): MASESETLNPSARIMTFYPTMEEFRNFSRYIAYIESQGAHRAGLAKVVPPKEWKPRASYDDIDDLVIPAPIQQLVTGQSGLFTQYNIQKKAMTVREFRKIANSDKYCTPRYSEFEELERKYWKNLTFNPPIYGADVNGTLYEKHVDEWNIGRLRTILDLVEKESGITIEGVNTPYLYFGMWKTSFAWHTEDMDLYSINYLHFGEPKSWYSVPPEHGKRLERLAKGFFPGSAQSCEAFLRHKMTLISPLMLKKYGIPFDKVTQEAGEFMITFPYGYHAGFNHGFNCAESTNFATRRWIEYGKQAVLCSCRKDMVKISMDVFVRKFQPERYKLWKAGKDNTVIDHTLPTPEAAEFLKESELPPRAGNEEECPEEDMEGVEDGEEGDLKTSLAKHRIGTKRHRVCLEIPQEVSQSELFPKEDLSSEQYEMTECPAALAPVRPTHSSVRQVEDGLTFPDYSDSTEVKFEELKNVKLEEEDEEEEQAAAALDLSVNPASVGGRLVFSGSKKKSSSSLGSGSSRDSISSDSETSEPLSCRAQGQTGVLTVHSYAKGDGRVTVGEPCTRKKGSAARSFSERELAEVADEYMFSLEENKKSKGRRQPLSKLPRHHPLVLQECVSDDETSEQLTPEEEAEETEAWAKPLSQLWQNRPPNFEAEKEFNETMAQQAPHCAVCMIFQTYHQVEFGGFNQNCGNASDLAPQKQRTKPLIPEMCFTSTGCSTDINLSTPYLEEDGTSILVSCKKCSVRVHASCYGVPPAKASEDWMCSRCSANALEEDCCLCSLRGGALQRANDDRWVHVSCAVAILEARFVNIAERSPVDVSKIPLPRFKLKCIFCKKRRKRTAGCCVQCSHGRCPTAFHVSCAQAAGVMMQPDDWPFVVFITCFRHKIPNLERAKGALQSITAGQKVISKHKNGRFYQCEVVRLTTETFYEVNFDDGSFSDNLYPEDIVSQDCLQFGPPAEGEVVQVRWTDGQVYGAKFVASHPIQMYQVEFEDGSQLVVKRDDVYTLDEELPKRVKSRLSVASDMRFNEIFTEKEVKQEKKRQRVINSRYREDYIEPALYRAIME
# Description: U2OS cells were seeded 24 hours before transfection. Transfection was performed with Fugene HD transfection reagent as recommended by the manufacturer. 6 hours after transfection, the cells were harvested and seeded into multi well plates into media containing compound. The media used was DMEM containing 10% FBS and pen/strep. 20 hours after incubation of cells with compounds, the cells were washed in PBS, harvested by fixation with formaldehyde 4% aqueous solution, and washed in PBS. Subsequently, the cells were permeabilized in PBS with 0.2% Triton X-100 for. Blocking was performed in PBS with 0.2% Triton X-100 and 5% FBS. The cells were incubated with primary antibodies in blocking solution over night at 4° C. The primary antibodies used in the assays were HA.11 (Covance, MMS-101P) and the antibody detecting the mark specified in the table below. After incubation with primary antibodies, the cells were washed with PBS, incubated with secondary antibodies (Alexa fluor 594 goat anti rabbit IgG, Invitrogen, A11012; Alexa flour 488 donkey anti mouse IgG, Invitrogen, A21202) and Hoechst, (Sigma, 33342) in blocking solution, and washed again with PBS. Finally, PBS was added and high throughput imaging and analysis were performed by an IN Cell Analyzer 1000 (GE Healthcare). The robot software analyzed individual cells and divided these into HA+ (transfected cells) and HA− (non-transfected cells). The IC50 values were based on an average measure of the staining of the mark specified in the table below in the transfected cells.
EC50 (MCF7 cells),IC50 (H3K4me3 mark),IC50 (KDM4A),SMILES
,0.25 to 2.5 µM,> 2.5 µM,"COc1ccccc1CN1CCC(NC(=O)CNCc2cc(CNC3CC3)ccn2)CC1 [Compound 20, 2-[({4-[(cyclopropylamino)-methyl]pyridin-2-yl}methyl)amino]-N-{1-[(2-methoxyphenyl)methyl]-piperidin-4-yl}acetamide]"
,,> 2.5 µM,"O=Cc1ccnc(CNCCCCN(Cc2ccccc2)C2CC2)c1 [Compound 109, 2-[({4-[benzyl-(cyclopropyl)amino]-butyl}amino)methyl]-pyridine-4-carbaldehyde]"

# The next lines start with the compound.
SMILES,EC50 (MCF7 cells),IC50 (H3K4me3 mark),IC50 (KDM4A)
"CN(C)CCCCNCc1cc(CN)ccn1 [Compound 2, [2-({[4-(dimethylamino)butyl]-amino}methyl)pyridin-4-yl]methanamine]",< 0.25 µM,,
"CCN(CCN(C)C)C(=O)CN(Cc1cc(CNC(=O)C(F)(F)F)ccn1)C(=O)C(F)(F)F [Compound 26, N-[(2-{[N-({[2-(dimethylamino)ethyl]-(ethyl)carbamoyl}-methyl)-2,2,2-trifluoroacetamido]-methyl}pyridin-4-yl)methyl]-2,2,2-trifIuoroacetamide]",< 0.25 µM,,
"CCN(CC)CCCCNCc1cc(C2NCCCN2C)ccn1 (stereo not shown) [Compound 68, [4-(diethylamino)butyl]({[4-(1-methyl-1,3-diazinan-2-yl)pyridin-2-yl]methyl})amine]",< 0.25 µM,< 0.25 µM,

# Source: patent publication US9650339B2, “Inhibitors of histone demethylases” (Gilead Sciences, Inc., priority 2013, dated 2017)
